According to PubChem BioAssay (NCI):
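Values below derive from 48-hour exposures of cells grown in 96-well plates, with endpoints linearly interpolated between the two concentrations bracketing the appropriate inhibition level. TGI marks complete inhibition of growth.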

What was measured:
Experiment in all cases: NCI-60 cell line screen, 48 h
[1] = test system: 786-0 renal
[2] = test system: A498 renal
[3] = test system: A549 NSCLC
[4] = test system: ACHN renal
[5] = test system: CAKI-1 renal
[6] = test system: CCRF-CEM leukemia
[7] = test system: COLO 205 colon
[8] = test system: DMS 273 small cell lung
[9] = test system: EKVX NSCLC
[10] = test system: HCC-2998 colon
[11] = test system: HCT-116 colon
[12] = test system: HCT-15 colon
[13] = test system: HL-60(TB) leukemia
[14] = test system: HOP-18 NSCLC
[15] = test system: HOP-62 NSCLC
[16] = test system: HOP-92 NSCLC
[17] = test system: HT29 colon
[18] = test system: IGROV1 ovarian
[19] = test system: K-562 leukemia
[20] = test system: KM12 colon
[21] = test system: KM20L2 colon
[22] = test system: LOX IMVI melanoma
[23] = test system: LXFL 529 NSCLC
[24] = test system: M19-MEL melanoma
[25] = test system: MALME-3M melanoma
[26] = test system: MOLT-4 leukemia
[27] = test system: NCI-H226 lung
[28] = test system: NCI-H23 lung
[29] = test system: NCI-H460 lung
[30] = test system: NCI-H522 lung
[31] = test system: OVCAR-4 ovarian
[32] = test system: OVCAR-5 ovarian
[33] = test system: OVCAR-8 ovarian
[34] = test system: RXF 393 renal
[35] = test system: RXF-631 renal
[36] = test system: SF-268 CNS
[37] = test system: SF-295 CNS
[38] = test system: SF-539 CNS
[39] = test system: SK-MEL-2 melanoma
[40] = test system: SK-MEL-28 melanoma
[41] = test system: SK-OV-3 ovarian
[42] = test system: SN12C renal
[43] = test system: SNB-19 CNS
[44] = test system: SNB-78 CNS
[45] = test system: SR leukemia
[46] = test system: SW-620 colon
[47] = test system: TK-10 renal
[48] = test system: U251 CNS
[49] = test system: UACC-257 melanoma
[50] = test system: XF 498 CNS
[51] = test system: DLD-1 colon
[52] = test system: DMS 114 small cell lung
[53] = test system: M14 melanoma
[54] = test system: OVCAR-3 ovarian
[55] = test system: RPMI-8226 leukemia
[56] = test system: SK-MEL-5 melanoma
[57] = test system: SNB-75 CNS
[58] = test system: UACC-62 melanoma
[59] = test system: UO-31 renal

## CCOC(=O)C1(C)C2=CC=C(O2)C(C)(C)C2=CC=C(O2)C(C)(C)C2=CC=C(O2)C(C)(C)C2=CC=C1O2
[1]
  TGI: > 100 µM
[2]
  TGI: > 100 µM
[3]
  TGI: > 100 µM
[4]
  TGI: > 100 µM
[5]
  TGI: > 100 µM
[6]
  TGI: > 100 µM
[7]
  TGI: > 100 µM
[8]
  TGI: > 100 µM
[9]
  TGI: > 100 µM
[10]
  TGI: > 100 µM
[11]
  TGI: > 100 µM
[12]
  TGI: > 100 µM
[13]
  TGI: > 100 µM
[14]
  TGI: > 100 µM
[15]
  TGI: > 100 µM
[16]
  TGI: > 100 µM
[17]
  TGI: > 100 µM
[18]
  TGI: > 100 µM
[19]
  TGI: > 100 µM
[20]
  TGI: > 100 µM
[21]
  TGI: > 100 µM
[22]
  TGI: > 100 µM
[23]
  TGI: > 100 µM
[24]
  TGI: > 100 µM
[25]
  TGI: > 100 µM
[26]
  TGI: > 100 µM
[27]
  TGI: > 100 µM
[28]
  TGI: > 100 µM
[29]
  TGI: > 100 µM
[30]
  TGI: > 100 µM
[31]
  TGI: > 100 µM
[32]
  TGI: > 100 µM
[33]
  TGI: > 100 µM
[34]
  TGI: > 100 µM
[35]
  TGI: > 100 µM
[36]
  TGI: > 100 µM
[37]
  TGI: > 100 µM
[38]
  TGI: > 100 µM
[39]
  TGI: > 100 µM
[40]
  TGI: > 100 µM
[41]
  TGI: > 100 µM
[42]
  TGI: > 100 µM
[43]
  TGI: > 100 µM
[44]
  TGI: > 100 µM
[45]
  TGI: > 100 µM
[46]
  TGI: > 100 µM
[47]
  TGI: > 100 µM
[48]
  TGI: > 100 µM
[49]
  TGI: > 100 µM
[50]
  TGI: > 100 µM

## C=CCc1cc(OC)c(O)c(C(=O)/C=C/c2ccc(OC)c(OC)c2)c1
[1]
  TGI: 35.9 µM
[2]
  TGI: 39.7 µM
[3]
  TGI: > 100 µM
[4]
  TGI: 45.9 µM
[5]
  TGI: 58.7 µM
[6]
  TGI: 56.4 µM
[7]
  TGI: 31.4 µM
[51]
  TGI: 37.2 µM
[52]
  TGI: 52.1 µM
[8]
  TGI: > 100 µM
[9]
  TGI: 52.5 µM
[10]
  TGI: 38.6 µM
[11]
  TGI: 27.6 µM
[13]
  TGI: 38 µM
[17]
  TGI: 33.1 µM
[18]
  TGI: > 100 µM
[19]
  TGI: 41.8 µM
[20]
  TGI: 44.9 µM
[22]
  TGI: 91.8 µM
[23]
  TGI: 54.7 µM
[53]
  TGI: 31.7 µM
[25]
  TGI: 37 µM
[28]
  TGI: 30.5 µM
[29]
  TGI: > 100 µM
[30]
  TGI: 7.08 µM
[54]
  TGI: 41.3 µM
[31]
  TGI: 34.9 µM
[32]
  TGI: 45.4 µM
[55]
  TGI: 3.31 µM
[35]
  TGI: 83.9 µM
[36]
  TGI: 53.1 µM
[37]
  TGI: 74.1 µM
[38]
  TGI: 48.1 µM
[39]
  TGI: 28.8 µM
[40]
  TGI: 33.6 µM
[56]
  TGI: 36.6 µM
[41]
  TGI: 64.9 µM
[43]
  TGI: 30.5 µM
[57]
  TGI: 59.3 µM
[44]
  TGI: > 100 µM
[46]
  TGI: 97.1 µM
[47]
  TGI: 64.1 µM
[48]
  TGI: 37.8 µM
[49]
  TGI: 37.4 µM
[58]
  TGI: 52.2 µM
[59]
  TGI: 29.6 µM
[50]
  TGI: 27 µM

## NNC(=O)N/N=C(/CC1(O)C(=O)Nc2ccc(Br)cc21)c1ccccc1 (stereo not given)
[1]
  TGI: > 100 µM
[3]
  TGI: > 100 µM
[4]
  TGI: > 100 µM
[5]
  TGI: > 100 µM
[6]
  TGI: 65.2 µM
[51]
  TGI: > 100 µM
[8]
  TGI: > 100 µM
[9]
  TGI: > 100 µM
[11]
  TGI: 72.6 µM
[12]
  TGI: > 100 µM
[13]
  TGI: 51.7 µM
[16]
  TGI: 63.8 µM
[17]
  TGI: > 100 µM
[18]
  TGI: > 100 µM
[19]
  TGI: 69.1 µM
[20]
  TGI: 87.5 µM
[21]
  TGI: > 100 µM
[22]
  TGI: 35.1 µM
[23]
  TGI: > 100 µM
[53]
  TGI: > 100 µM
[24]
  TGI: > 100 µM
[25]
  TGI: > 100 µM
[26]
  TGI: 44.2 µM
[27]
  TGI: > 100 µM
[28]
  TGI: > 100 µM
[30]
  TGI: 46.6 µM
[54]
  TGI: > 100 µM
[55]
  TGI: > 100 µM
[35]
  TGI: > 100 µM
[36]
  TGI: > 100 µM
[37]
  TGI: > 100 µM
[38]
  TGI: > 100 µM
[39]
  TGI: 85.2 µM
[40]
  TGI: > 100 µM
[41]
  TGI: > 100 µM
[42]
  TGI: > 100 µM
[43]
  TGI: 46.2 µM
[57]
  TGI: > 100 µM
[44]
  TGI: > 100 µM
[45]
  TGI: 87.8 µM
[46]
  TGI: > 100 µM
[47]
  TGI: > 100 µM
[49]
  TGI: > 100 µM
[58]
  TGI: 50.9 µM
[59]
  TGI: 49.3 µM
[50]
  TGI: 38.5 µM

## NC(=S)N/N=C/C(O[C@@H](/C=N/NC(N)=S)CO)n1cnc2c(N)ncnc21 (stereo not given in full)
[1]
  TGI: > 100 µM
[2]
  TGI: > 100 µM
[3]
  TGI: > 100 µM
[4]
  TGI: > 100 µM
[5]
  TGI: > 100 µM
[6]
  TGI: > 100 µM
[7]
  TGI: > 75.9 µM
[52]
  TGI: > 55.9 µM
[8]
  TGI: 97.7 µM
[9]
  TGI: > 100 µM
[10]
  TGI: > 100 µM
[11]
  TGI: > 61.9 µM
[12]
  TGI: > 62 µM
[13]
  TGI: > 100 µM
[14]
  TGI: > 100 µM
[15]
  TGI: > 100 µM
[16]
  TGI: > 100 µM
[17]
  TGI: > 100 µM
[18]
  TGI: > 100 µM
[19]
  TGI: > 100 µM
[20]
  TGI: > 100 µM
[21]
  TGI: > 100 µM
[22]
  TGI: > 100 µM
[23]
  TGI: > 100 µM
[53]
  TGI: > 100 µM
[24]
  TGI: > 100 µM
[25]
  TGI: > 100 µM
[26]
  TGI: > 100 µM
[27]
  TGI: > 100 µM
[28]
  TGI: > 100 µM
[29]
  TGI: > 100 µM
[30]
  TGI: > 72.4 µM
[54]
  TGI: > 94.5 µM
[31]
  TGI: > 100 µM
[32]
  TGI: > 100 µM
[33]
  TGI: > 100 µM
[55]
  TGI: > 72.7 µM
[34]
  TGI: > 100 µM
[35]
  TGI: > 100 µM
[36]
  TGI: > 100 µM
[37]
  TGI: > 100 µM
[38]
  TGI: > 100 µM
[40]
  TGI: > 100 µM
[56]
  TGI: > 100 µM
[41]
  TGI: > 100 µM
[42]
  TGI: > 100 µM
[43]
  TGI: > 100 µM
[57]
  TGI: > 100 µM
[44]
  TGI: > 100 µM
[45]
  TGI: > 100 µM
[46]
  TGI: > 53.7 µM
[47]
  TGI: > 100 µM
[48]
  TGI: > 89.4 µM
[49]
  TGI: > 100 µM
[58]
  TGI: > 100 µM
[59]
  TGI: > 100 µM
[50]
  TGI: > 100 µM
